pIC50: −log10 of the molar value. Read-outs that look alike come from different tables or passages of the source.
Legend:
[1] = target: T1, cloned human 5-HT1A receptors (Homo sapiens, UniProt P08908); test: Inhibition of 3H-5-CT binding to human 5-HT1A receptors
T1 construct: expressed in transfected cells; host or cells: HeLa cells (HA7), stably transfected; cell homogenate
T1 sequence (P08908 1-422): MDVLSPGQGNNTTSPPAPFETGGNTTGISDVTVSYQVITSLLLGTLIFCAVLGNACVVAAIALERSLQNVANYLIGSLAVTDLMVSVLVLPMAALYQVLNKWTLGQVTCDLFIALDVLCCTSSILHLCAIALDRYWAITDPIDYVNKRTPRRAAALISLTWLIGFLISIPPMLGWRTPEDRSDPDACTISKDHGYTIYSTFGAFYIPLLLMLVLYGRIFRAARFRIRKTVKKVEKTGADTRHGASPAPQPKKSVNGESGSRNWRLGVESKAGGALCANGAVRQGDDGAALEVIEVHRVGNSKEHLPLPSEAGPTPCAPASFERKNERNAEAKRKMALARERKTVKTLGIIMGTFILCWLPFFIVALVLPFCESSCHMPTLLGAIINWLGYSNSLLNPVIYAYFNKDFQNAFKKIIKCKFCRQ
Experimental: Inhibition of ^3H-5CT Binding to Human 5-HT1A Receptors
Human 5-HT1A receptors (40 μg of cell homogenate) were incubated for 15 minutes at 37° C. in 50 mM Tris buffer at pH 7.7 in the presence of ^3H-5-CT. Non-specific binding was determined by including 10 μM of metergoline. The reaction was terminated by rapid filtration through Unifilter GF/B filters on a Tomtec Cell Harvester. Filters were counted in a Packard Top Counter.

[2] = system: serotonin reuptake (3H-5-HT uptake into whole rat brain synaptosomes); test: Inhibition of 3H-5-HT uptake into rat brain synaptosomes; format: biochemical
Experimental: Inhibition of ^3H-5HT Uptake Into Rat Brain Synaptosomes
Using this method, the ability of drugs to inhibit the accumulation of ^3H-5-HT into whole rat brain synaptosomes is determined in vitro.

[3] = cloned human 5-HT1A receptors expressed in HeLa cells (HA7)

| SMILES | pIC50 [1, 3] | pIC50 [2] | Inhibition of serotonin reuptake % inhibition at 100 nM [2] | pIC50 [1] |
| --- | --- | --- | --- | --- |
| CN(CCCCc1c[nH]c2ccccc12)CCCC1(c2ccccc2)OCc2ccccc21 (stereo not shown) [Compound 2e, 1-[3-[[4-(1H-Indol-3-yl)butyl]methylamino]propyl]1-phenyl-1,3-dihydroisobenzofuran] | 7.42 | 7.82 |  |  |
| CCN(CCCC1(c2ccc(F)cc2)OCc2cc(C#N)ccc21)CCc1c[nH]c2ccc(Br)cc12 (stereo not shown) [Compound 12ab, 1-[3-[[2-(5-Bromo-1H-indol-3-yl)ethyl]ethylamino]propyl]-1-(4-fluorophenyl)-1,3-dihydroisobenzofuran-5-carbonitrile] | 7.70 |  | 50% inh. at 100 nM |  |
| C=CCN(CCCc1c[nH]c2c(F)cccc12)CCCC1(c2ccc(F)cc2)OCc2cc(C#N)ccc21 (stereo not shown) [Compound 13e, 1-[3-[[3-(7-Fluoro-1H-indol-3-yl)propyl](prop-2-en-1-yl)amino]propyl]-1-(4-fluorophenyl)-1,3-dihydroisobenzofuran-5-carbonitrile] | 7.66 | 7.57 |  |  |
| CN(CCCc1cccc2c1OCCO2)CCCC1(c2ccc(F)cc2)OCc2ccccc21 (stereo not shown) [Compound 2j, 5-[3-[[3-[1-(4-Fluorophenyl)-1,3-dihydroisobenzofuran-1-yl]propyl]methylamino]propyl]-1,4benzodioxane] | 7.39 | 8.01 |  |  |
| C=CCN(CCCC1(c2ccc(F)cc2)OCc2cc(C#N)ccc21)CCc1c[nH]c2c(C)ccc(Cl)c12 (stereo not shown) [Compound 13j, 1-[3-[[2-(4-Chloro-7-methyl-1H-indol-3-yl)ethyl](prop-2-en-1-yl)amino]propyl]-1-(4-fluorophenyl)-1,3-dihydroisobenzofuran-5-carbonitrile] | 7.80 |  | 61% inh. at 100 nM |  |
| C=CCN(CCCC1(c2ccc(F)cc2)OCc2cc(C#N)ccc21)CCc1cccc(OC)c1 (stereo not shown) [Compound 4c, 1-(4-Fluorophenyl)-1-[3-[[2-(3-methoxyphenyl)ethyl](prop-2-en-1-yl)amino]propyl]-1,3-dihydroisobenzofuran-5-carbonitrile] | 7.96 |  | 4% inh. at 100 nM |  |
| C=CCN(CCCC1(c2ccc(F)cc2)OCc2cc(C#N)ccc21)CCc1c[nH]c2c(F)cccc12 (stereo not shown) [Compound 13c, 1-[3-[[2-(7-Fluoro-1H-indol-3-yl)ethyl](prop-2-en-1-yl)amino]propyl]-1-(4-fluorophenyl)-1,3-dihydroisobenzofuran-5-carbonitrile] | 8.02 | 7.92 |  |  |
| N#Cc1ccc2c(c1)COC2(CCCN(CCCc1c[nH]c2ccc(F)cc12)CCOc1ccccc1)c1ccc(F)cc1 (stereo not shown) [Compound 13u, 1-[3-[[3-(5-Fluoro-1H-indol-3-yl)propyl](2-phenoxyethyl)amino]propyl]-1-(4-fluorophenyl)-1,3-dihydroisobenzofuran-5-carbonitrile] | 7.66 |  |  |  |
| CCN(CCCCc1c[nH]c2ccc(F)cc12)CCCC1(c2ccc(F)cc2)OCc2cc(C#N)ccc21 (stereo not shown) [Compound 12v, 1-[3-[[4-(5-Fluoro-1H-indol-3-yl)butyl]ethylamino]propyl]-1-(4-fluorophenyl)-1,3-dihydroisobenzofuran-5-carbonitrile] | 7.41 | 7.92 |  |  |
| CN(CCCc1c[nH]c2ccccc12)CCCC1(c2ccc(F)cc2)OCc2cc(C#N)ccc21 (stereo not shown) [Compound 4s, 1-[3-[[3-(1H-Indol-3-yl)propyl]methylamino]propyl]-1-(4-fluorophenyl)-1,3-dihydroisobenzofuran-5-carbonitrile] | 7.52 | 7.46 |  |  |
| CN(CCCC1(c2ccc(F)cc2)OCc2cc(C#N)ccc21)CCOc1ccccc1 (stereo not shown) [Compound 4g, 1-(4-Fluorophenyl)-1-[3-[[2-phenoxyethyl]methylamino]propyl]-1,3-dihydroisobenzofuran-5carbonitrile] | 7.74 |  | 28% inh. at 100 nM |  |
| Cc1ccc2[nH]cc(CCCN(C)CCCC3(c4ccc(F)cc4)OCc4cc(F)ccc43)c2c1 (stereo not shown) [Compound 12c, 5-Fluoro-1-[3-[[3-(5-methyl-1H-indol-3-yl)propyl]methylamino]propyl]-1-(4-fluorophenyl)-1,3-dihydroisobenzofuran] | 7.72 | 7.77 |  |  |
| C=CCN(CCCc1cccc(OC)c1)CCCC1(c2ccc(F)cc2)OCc2cc(C#N)ccc21 (stereo not shown) [Compound 4l] |  |  | 27% inh. at 100 nM |  |
| COc1ccccc1CCCN(C)CCCC1(c2ccc(F)cc2)OCc2cc(C#N)ccc21 (stereo not shown) [Compound 4j, 1-(4Fluorophenyl)-1-[3-[[3-(2-methoxyphenyl)propyl]methylamino]propyl]-1,3-dihydroisobenzofuran-5-carbonitrile] | 8.21 | 7.11 |  |  |
| C#CCN(CCCc1c[nH]c2ccccc12)CCCC1(c2ccc(F)cc2)OCc2cc(C#N)ccc21 (stereo not shown) [Compound 4u, 1-[3-[[3-(1H-Indol-3-yl)propyl](prop-2-yl-1-yl)amino]propyl]-1-(4-fluorophenyl)-1,3-dihydroisobenzofuran-5-carbonitrile] |  |  | 44% inh. at 100 nM |  |
| N#Cc1ccc2c(c1)COC2(CCCN1CCN(c2ccc3[nH]ccc3c2)CC1)c1ccc(F)cc1 (stereo not shown) [Compound 2n, 1-[3-[4-(1H-Indol-5-yl)piperazinyl]propyl]-1-(4-fluorophenyl)-1,3-dihydroisobenzofuran-5-carbonitrile] | 7.82 |  |  |  |
| N#Cc1ccc2c(c1)COC2(CCCN(CCOc1ccccc1)CCc1c[nH]c2ccc(F)cc12)c1ccc(F)cc1 (stereo not shown) [Compound 13r, 1-[3-[[2-(5-Fluoro-1H-indol-3-yl)ethyl](2-phenoxyethyl)amino]propyl]-1-(4-fluorophenyl)-1,3-dihydroisobenzofuran-5-carbonitrile] | 8.05 |  |  |  |
| Cc1ccc2[nH]cc(CCN(CCCC3(c4ccc(F)cc4)OCc4cc(C#N)ccc43)CCOc3ccccc3)c2c1 (stereo not shown) [Compound 13q, 1-[3-[[2-(5-Methyl-1H-indol-3-yl)ethyl](2-phenoxyethyl)amino]propyl]-1-(4-fluorophenyl)-1,3dihydroisobenzofuran-5-carbonitrile] | 7.92 |  |  |  |
| Cc1ccc2[nH]cc(CCCN(CCCC3(c4ccc(F)cc4)OCc4cc(C#N)ccc43)CCOc3ccccc3)c2c1 (stereo not shown) [Compound 13t, 1-[3-[[3-(5-Methyl-1H-indol-3-yl)propyl](2-phenoxyethyl)amino]propyl]-1-(4-fluorophenyl)-1,3-dihydroisobenzofuran-5-carbonitrile] | 7.64 |  |  |  |
| N#Cc1ccc2c(c1)COC2(CCCN(CCCc1c[nH]c2ccccc12)CCOc1ccccc1)c1ccc(F)cc1 (stereo not shown) [Compound 13p, 1-[3-[[3-(1H-Indol-3-yl)propyl](2-phenoxyethyl)amino]propyl]-1-(4-fluorophenyl)-1,3-dihydroisobenzofuran-5-carbonitrile] | 7.64 |  |  |  |
| N#Cc1ccc2c(c1)COC2(CCCN(CCOc1ccccc1)CCc1c[nH]c2c(F)cc(F)cc12)c1ccc(F)cc1 (stereo not shown) [Compound 13v, 1-[3-[[2-(5,7-Difluoro-1H-indol-3-yl)ethyl](2-phenoxyethyl)amino]propyl]-1-(4-fluorophenyl)-1,3-dihydroisobenzofuran-5-carbonitrile] | 7.64 |  |  |  |
| C=CCN(CCCc1c[nH]c2ccc(Cl)cc12)CCCC1(c2ccc(F)cc2)OCc2cc(C#N)ccc21 (stereo not shown) [Compound 13k, 1-[3-[[3-(5-Chloro-1H-indol-3-yl)propyl](prop-2-en-1-yl)amino]propyl]-1-(4-fluorophenyl)-1,3-dihydroisobenzofuran-5-carbonitrile] | 7.72 |  |  |  |
| COc1ccccc1N1CCN(CCCC2(c3ccc(F)cc3)OCc3cc(C#N)ccc32)CC1 (stereo not shown) [Compound 2a, 1-(4-Fluorophenyl)-1-[3-[4-(2-methoxyphenyl)piperazinyl]propyl]-1,3-dihydroisobenzofuran-5-carbonitrile] | 9.00 |  |  |  |
| N#Cc1ccc2c(c1)COC2(CCCN1CCC(c2c[nH]c3cc(Cl)ccc23)CC1)c1ccc(F)cc1 (stereo not shown) [Compound 2o, 1-[3-[4-(6-chloro-1H-Indol-3-yl)piperidinyl]propyl]-1-(4fluorophenyl)-1,3-dihydroisobenzofuran-5-carbonitrile] | 7.92 |  |  |  |
| N#Cc1ccc2c(c1)COC2(CCCN1CCN(c2cccc3[nH]ccc23)CC1)c1ccc(F)cc1 (stereo not shown) [Compound 2m, 1-[3-[4-(1H-Indol-4-yl)piperazinyl]propyl]-1-(4fluorophenyl)-1,3-dihydroisobenzofuran-5carbonitrile] | 8.33 |  |  |  |
| COc1ccccc1OCCCN(C)CCCC1(c2ccc(F)cc2)OCc2cc(C#N)ccc21 (stereo not shown) [Compound 4m] |  |  | 74% inh. at 100 nM |  |
| CN(CCCC1(c2ccc(F)cc2)OCc2cc(C#N)ccc21)CCc1c[nH]c2c(F)cccc12 (stereo not shown) [Compound 12b, 1-[3-[[2-(7-Fluoro-1H-indol-3-yl)ethyl]methylamino]propyl]-1-(4-fluorophenyl)-1,3-dihydroisobenzofuran-5-carbonitrile] |  |  |  | 7.37 |
| CC(C)c1ccc2[nH]cc(CCN(CCCC3(c4ccc(F)cc4)OCc4cc(C#N)ccc43)CCOc3ccccc3)c2c1 (stereo not shown) [Compound 13x, 1-[3-[(2-Phenoxyethyl)[2-[5-(2-propyl)-1H-indol-3-yl]ethyl]amino]propyl]-1-(4-fluorophenyl)-1,3-dihydroisobenzofuran-5-carbonitrile] | 7.59 |  |  |  |
